{
  "source": "patent US10328061B2",
  "about": "“Treatment of Zika virus infections using alpha-glucosidase inhibitors” (FLORIDA STATE UNIVERSITY RESEARCH FOUNDATION, INC., priority 2016, dated 2019)",
  "key": {"[1]": {"tested_on": "Japanese encephalitis virus", "settings": "compared with Dengue virus; cited from earlier work"}, "[2]": {"tested_on": "Japanese encephalitis virus", "settings": "mice given a lethal dose of Japanese encephalitis virus; cited from earlier work"}, "[3]": {"tested_on": "Zika virus (FSS13025)", "assay": "Zika viral load in serum of Ifnar1-/- mice (ZIKV NS1 ELISA)", "assay_type": "in vivo, Ifnar1-/- mice (C57BL/6 background)", "settings": "100 mg/kg BW intraperitoneal, day 0 to day 3", "text": "FIGS. 2A-2B. Zika viral load in serum in Ifnar1−/− mice. Serum was separated from the blood by centrifugation. Viral load (NS1) was estimated using the ZIKV NS1 ELISA Kit (BioFront Technologies, Fl, USA) as per the manual. Statistical analysis was done by unpaired t-test using GraphPad Prism software. *p<0.05 is considered as significant (FIG. 2B). With castanospermine treatment, there was 46% reduction in Zika virus load as estimated by NS1 protein in the serum (FIG. 2A).\n(§1) Ifnar1−/− mice (C57BL/6 background) were obtained (Muller U. et al. “Functional role of type I and type II interferons in antiviral defense”. Science. 1994; 264(5167):1918-21. Epub 1994/06/24). Out of 18 total Ifnar1−/− mice, two mice were dosed with castanospermine and media, 8 mice (male+female) were dosed with saline and ZIKV, and 8 mice were dosed with castanospermine and ZIKV on day-0. The drug was continued for three more days and animals were sacrificed on day-3. Body weight and water consumption were monitored daily."}, "[4]": {"tested_on": "FSS-13025 strain of ZIKV", "assay": "Anti-ZIKV activity in SNB-19 cells, ZIKV-NS1 Western blot", "assay_type": "cell-based, Zika virus", "settings": "100 μm, 500 μm and 1 mM, one hour prior to inoculation (MOI=1), harvested 24 hours post-infection", "protocol": "FIG. 1. Castanospermine as anti-ZIKV compound. Castanospermine was screened for antiviral activity against ZIKV infection. Glioblastoma SNB-19 cells were treated with castanospermine at the indicated concentrations one hour prior to inoculation with the FSS-13025 strain of ZIKV (at MOI=1). Cells were harvested 24 hours post-infection and analyzed by Western blot for ZIKV-NS1 or GAPDH.\nCells of the glioblastoma SNB-19 cell line were maintained at 37° C. in 5% CO2 in […], 1× penicillin/streptomycin, and 10% fetal bovine serum (Invitrogen). SNB-19 cells were treated with castanospermine at increasing concentrations (100 μm, 500 μm, and 1 mM) one hour prior to inoculation with the FSS-13025 strain of ZIKV. Cells were harvested 24 hours post-infection and analyzed by Western blot for ZIKV-NS1 or GAPDH."}, "[5]": {"tested_on": "Zika virus (FSS13025)", "assay": "Zika viral load in liver of Ifnar1-/- mice (ZIKV NS1 gene real time PCR)", "assay_type": "in vivo, Ifnar1-/- mice (C57BL/6 background)", "settings": "100 mg/kg BW intraperitoneal, day 0 to day 3, ZIKV NS1 gene by real time PCR", "protocol": "FIGS. 3A-3B. Zika viral load in liver of Ifnar1−/− mice. After euthanizing the mice, liver tissue samples were stored in RNAase later buffer, and after homogenization in lysis buffer the total RNA was extracted using Rneasy column (Qiagen). cDNA was prepared using RT reaction. The expression level of the ZIKV NS1 gene was quantified by real time PCR using specific primers. Statistical analysis was done by unpaired t-test using GraphPad Prism software. *p<0.05 is considered as significant (FIG. 3B). There was a 68% decrease in the viral load in the liver with castanospermine treatment (FIG. 3A).\nas §1"}, "[6]": {"tested_on": "West Nile Virus", "settings": "cited from earlier work"}, "[7]": {"settings": "by endogenous esterases; cited from earlier work"}},
  "data": [
    {"compound": "CCCCCCCCCN1C[C@H](O)[C@@H](O)[C@H](O)[C@H]1CO", "note": "[NN-DNJ, N-nonyl-deoxynojirimycin]", "values": [
      {"measurement": "suppression of cell infection by Japanese encephalitis virus", "setting": "[1]", "value": "suppressed cell infection but to a lesser extent than with Dengue virus"},
      {"measurement": "mortality rate", "setting": "[2]", "value": "decreased mortality rate"}
    ]},
    {"compound": "O[C@H]1[C@H](O)[C@@H](O)CN2CC[C@H](O)[C@H]12", "note": "[castanospermine, (1S,6S,7R,8aR)-Tetrahydroxyoctahydroindolizine]", "values": [
      {"measurement": "reduction in Zika virus load as estimated by NS1 protein in the serum", "setting": "[3]", "value": 46, "unit": "%"},
      {"measurement": "inhibition of ZIKV infection (ZIKV protein NS1 expression)", "setting": "[4]", "value": "significantly inhibit ZIKV infection"},
      {"measurement": "decrease in the viral load in the liver", "setting": "[5]", "value": 68, "unit": "%"},
      {"measurement": "sensitivity of West Nile Virus", "setting": "[6]", "value": "insensitive"}
    ]},
    {"compound": "CCCC(=O)O[C@H]1CN2CC[C@H](O)[C@@H]2[C@@H](O)[C@@H]1O", "note": "[celgosivir, 6-O-butanoyl castanospermine]", "values": [
      {"measurement": "conversion to castanospermine", "setting": "[7]", "value": "rapidly converted"}
    ]}
  ]
}
